Legend:
Format in all cases: in vivo, human
[1] = system: patients with progressive IMCVD; assay: Etanercept treatment of twelve patients with progressive IMCVD (25 mg subcutaneous injection twice a week)
Description: Study subjects were suspected of having IMCVDs mainly based on (1) the presence of bilateral sensorineural healing loss or typical symptoms of Meniere's disease with a recent progressive decline, (2) a clear response to high dose prednisone therapy, and/or (3) the presence of anti-HSP70 antibodies. Reasons for attempting etanercept therapy in these study patients included: (a) failure of conventional treatments in seven, (b) side effects of conventional treatment in three, (c) the need for corticosteroid sparing agent with a quick onset of action given intolerable corticosteroid side effects and rapidly progressive worsening of hearing in three, and (d) the patient's wish to avoid conventional agents in two given their known side effects of sub-optimal efficacy profile.
Of the 12 patients, six (50%) were women. The mean age was 47 (range, 24 to 71), and the mean duration of disease prior to the etanercept therapy was 13 years (range, 2 to 25 years). All 12 patients had both ears involved, 2 had predominantly one ear involvement with good hearing in the contralateral ear, 4 had significant loss of hearing in both ears, and 6 had lost all functional hearing in one ear and were treated with etanercept for a recent progressive decline of the remaining hearing. […] Patient # 9 had symmetric polyarthralgia, morning stiffness without documented synovitis, negative rheumatoid factor and positive anti-nuclear antibodies. Four of the 10 patients who were tested had antibodies to HSP70. Previous anti-rheumatic treatments included methotrexate in five, cyclophosphamide (CYTOXAN) in two, hydroxycholoquine in one, and chlorambucil in one. All patients received a trial of diuretics and sodium-restricted diet. Two of the patients had hypertension, one had diet-controlled diabetes mellitus, one had hyperlipidemia, and one had hypothyroidism.
Etanercept was started while the patients were on high dose prednisone (except in 2 cases, who were already off prednisone because of intolerable side-effects). The prednisone dose was then tapered off over 2 to 6 weeks (except in 2 cases) depending on disease severity, response to prednisone, and the severity of side effects of prednisone. The mean duration of the etanercept treatment in the 12 patients was 7 months (82 patient-months; range, 5 to 10 months) and mean follow-up from the start date of etanercept therapy was 8 months (range: 5.66 to 12 months). Seven of the twelve patients were still on etanercept at the end of study period (mean duration of 7 months) and the remaining five discontinued the drug. Four patients discontinued the drug at the end of the target period (6 months), and one patient was switched to infliximab (Remicade™), another TNF-receptor blocker for less than desired benefit from etanercept (duration 9 months). A criteria of prednisone response was based on improvements in hearing, vertigo, and equilibrium, as previously published by Sismanis et al. (Otolaryngology—Head and Neck Surgery 116(2): 146-52, 1997).
The main outcome measurement was improvement or stabilization of hearing by air conduction pure tone audiograms and/or by word discrimination scores. A slightly modified version of improvement criteria which was previously used to evaluate the efficacy of glucocorticoids was employed for IMCVDs: >15 dB at one frequency, 10 dB at two or more consecutive frequencies, or 15% increase in word discrimination scores (Sismanis et al., supra; Rauch, Annals of the New York Academy of Sciences 830:203-210, 1997). The audiogram before initiation of etanercept was compared with the most recent audiogram. When present, vertigo, tinnitus, and fullness were assessed using a 3-level response scale: better, no change, and worse. Outcomes were based on measurements at the farthest follow-up from the initiation of etanercept or at the declaration of no improvement in hearing by etanercept therapy, whichever came first. More than a 5-month follow-up was available for all patients (range: 5-12 months) […]

patients with IMCVD [2] = assay: Initial trials of leflunomide in patients with IMCVD (20 mg orally every day); conditions: of 3 patients, 5-6 month or 1-year regimen
patients with IMCVD [3] = assay: Two other separate trials of etanercept in additional IMCVD patients
patients with IMCVD [4] = assay: Infliximab trial in patients with IMCVD (3 mg/kg intravenous infusion every two months); conditions: of 3 patients; 3 mg/kg i.v. infusion every two months, at least 6 months
Protocol: In addition to etanercept, another TNF antagonist, infliximab, was also tested for efficacy. In this trial, 3 patients with IMCVD were treated with 3 mg/kg body weight of Remicade™ by intravenous infusion every two months. Treatment was continued for at least 6 months, and the patients were monitored.

[5] = single patient #1 on etanercept

## Cc1oncc1C(=O)Nc1ccc(C(F)(F)F)cc1 [leflunomide, N-(4′-trifluoromethylphenyl)-5-methylisoxazole-4-carboxamide]
[1]; single patient #8, leflunomide added to etanercept
  overall hearing after leflunomide was later added, patient #8: did not make any difference
[1]; single patient #11, leflunomide added to etanercept after deterioration
  hearing outcome after addition of leflunomide to etanercept, patient #11: rescued and stabilized
Patients with IMCVD [2]
  patients exhibiting positive results: 2 patients

## etanercept
[1]; 8 out of 9 patients who had aural fullness
  patients who had aural fullness with resolution or significant improvement of symptoms: 89%
[1]; 10 patients on variable doses of prednisone to maintain hearing, after starting etanercept
  patients on prednisone able to taper off prednisone without affecting their hearing: Eight of the 10
[1]; 11 out of 12 patients, 25 mg s.c. twice a week, follow-up 5-12 months
  patients with improvement or stabilization of hearing and tinnitus: 92%
[1]; 12 patients, 25 mg s.c. twice a week
  adverse reactions: no adverse reactions except for mild transient injection-site reactions in a few patients
[1]; Seven out of 8 patients who had vertigo
  patients who had vertigo with resolution or significant improvement of symptoms: 88%
[1]; follow-up period
  side effects during the follow-up period: no appreciable side effects
[1]; human, in vivo
  persistence of benefit until the last visit, time after starting etanercept: 5 to 12 months
[1]; [5]
  hearing fluctuation, tinnitus, aural fullness and vertigo, patient #1: the fluctuation stabilized and their tinnitus, aura fullness, and vertigo resolved
  overall hearing, patient #1: did not have any significant improvement
[1]; single patient #8
  tinnitus and vertigo after switching to etanercept, patient #8: improvement
[1]; single patient #8, previously losing hearing on methotrexate and chlorambucil
  hearing outcome, patient #8 switched to etanercept: stabilized their hearing after being switched to etanercept but at a lower level than their baseline
[1]; single patient #11
  hearing outcome, patient #11 on etanercept: initial dramatic improvement after starting etanercept but deteriorated after 5 months
[1]; summary of 12 patients
  patients who experienced improvement in tinnitus, aural fullness, and vertigo: approximately 90%
  patients who stabilized their rapidly progressing hearing loss: 33%
  patients with remarkable improvement of hearing: 58%
Patients with IMCVD [3]; in sum, out of 18 patients with IMCVD treated with etanercept (all trials)
  patients showing positive outcomes: 16 patients
Patients with IMCVD [3]; six additional patients in two other separate trials
  outcome of IMCVD symptoms in additional patients: all showed improvement or stabilization of IMCVD symptoms

## infliximab: chimeric monoclonal antibody that binds to TNF-α, marketed as Remicade
[1]; single patient #11, switched after 9 months on etanercept
  hearing after switch from etanercept to infliximab, patient #11: remained unchanged
Patients with IMCVD [4]
  patients exhibiting positive results: 3 patients

Source: US6548527B2, “Treatments for immune-mediated ear disorders” (The General Hospital Corporation, priority 2000, dated 2003)
